According to US20210379040A1, “COMBINATION TREATMENT OF LIVER DISORDERS” (Terns Pharmaceuticals, Inc., priority 2020, published 2021):
Marks after values point to notes of the source that are not given here.

Assays:
[1] = Metabolism and excretion of radiolabeled (14C) compound; assay type: in vivo; settings: SD rats, bile duct intact or cannulated, orally 5 mg/kg or intravenously 2 mg/kg
Method: Blood, bile, feces, and urine samples were collected from each rat for up to 168 hours.

monkey hepatocytes = experiment: In vitro metabolic stability in cryopreserved hepatocytes (monkey); assay type: in vitro ADME; settings: Cynomolgus Monkey
Method: (§1) In vitro half-life values were determined and scaled to predict hepatic clearance (CLpred) and hepatic extraction using the well-stirred liver model with no correction for plasma protein as described in Obach et al., The Prediction of Human Pharmacokinetic Parameters from Preclinical and In Vitro Metabolism Data, J. of Pharmacology and Experimental Therapeutics, vol. 283, no. 1, pp. 46-58 (1997).

[2] = system: FXR-regulated gene expression in liver and ileum; experiment: Mechanism of action: tissue RNA by RT-qPCR and RNAseq after single oral dose; settings: C57BL/6 mice, single oral 10 mg/kg, 6 hours
human hepatocytes = experiment: In vitro metabolic stability in cryopreserved hepatocytes (human); assay type: in vitro ADME
Method: as §1

[3] = system: liver gene expression (lipid metabolism and fatty acid transport genes); experiment: Rat CDHFD+NaNO2 NASH model: liver whole transcriptome RNAseq (DEGs); assay type: in vivo, male Wistar rats; settings: Compound 2 25 mg/kg, Compound 1 3 mg/kg
Method: Animal handling: After arrival, the rats were left for a 2-week acclimation period, during which they were accustomed to the animal facility staff and trained on the procedure of oral gavage. […] Rats were then treated with test compounds for an additional 8 weeks while on CDHFD. […] Final Sacrifice: Half of the animals of each treatment group were terminated on day 84. The other half of the animals in each group were terminated on the following day, day 85. On the day of sacrifice the animals were fasted for 2 hours and received a final treatment with the respective test substance. After the final compound treatment, the animals had no more access to food until sacrifice. At 4 hours after the last administration all animals were sacrificed and livers were sampled for further analysis. Sampling and analysis: Small liver pieces were harvested into RNAlater (Thermo Fisher Scientific Dreieich Germany) and stored at −20° C. prior to RNA sequencing (RNAseq) at MedGenome Inc. RNAseq analysis was performed on liver tissue by Illumina sequencing using standard methodologies. […] Alignment was performed using STAR (v2.7.3a) aligner and reads mapping to ribosomal and mitochondrial genome were removed prior to alignment. Raw read counts were estimated using HTSeq (v0.11.1) and normalized using DESeq2 (v2.22.2). Differentially expressed genes (DEGs) were determined using DESeq2 (R Bioconductor package). […]

MAO-B = target: T1, MAO-B (Homo sapiens, UniProt P27338); experiment: Biochemical activity, MAO-B
T1 sequence (P27338 1-520): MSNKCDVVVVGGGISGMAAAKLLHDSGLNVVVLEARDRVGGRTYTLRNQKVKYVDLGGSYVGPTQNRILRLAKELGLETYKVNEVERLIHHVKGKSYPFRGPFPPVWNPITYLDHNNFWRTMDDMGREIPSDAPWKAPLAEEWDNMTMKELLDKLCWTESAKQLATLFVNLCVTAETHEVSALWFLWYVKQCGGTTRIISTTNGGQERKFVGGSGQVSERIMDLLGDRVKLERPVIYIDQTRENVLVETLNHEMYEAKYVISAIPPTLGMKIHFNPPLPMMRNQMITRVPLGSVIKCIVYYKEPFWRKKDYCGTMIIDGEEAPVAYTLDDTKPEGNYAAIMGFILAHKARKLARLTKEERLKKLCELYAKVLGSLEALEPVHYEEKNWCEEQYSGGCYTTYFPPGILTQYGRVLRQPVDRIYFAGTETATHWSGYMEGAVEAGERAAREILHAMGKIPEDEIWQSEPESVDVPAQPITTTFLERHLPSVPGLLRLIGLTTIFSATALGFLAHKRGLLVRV

plasma SSAO = target: T2, plasma SSAO (Homo sapiens, UniProt Q16853); experiment: Single-ascending dose clinical trial: plasma amine oxidase activity and methylamine; assay type: in vivo
T2 construct: from tissue; host or cells: plasma of healthy participants
T2 sequence (Q16853 27-763 limits assumed): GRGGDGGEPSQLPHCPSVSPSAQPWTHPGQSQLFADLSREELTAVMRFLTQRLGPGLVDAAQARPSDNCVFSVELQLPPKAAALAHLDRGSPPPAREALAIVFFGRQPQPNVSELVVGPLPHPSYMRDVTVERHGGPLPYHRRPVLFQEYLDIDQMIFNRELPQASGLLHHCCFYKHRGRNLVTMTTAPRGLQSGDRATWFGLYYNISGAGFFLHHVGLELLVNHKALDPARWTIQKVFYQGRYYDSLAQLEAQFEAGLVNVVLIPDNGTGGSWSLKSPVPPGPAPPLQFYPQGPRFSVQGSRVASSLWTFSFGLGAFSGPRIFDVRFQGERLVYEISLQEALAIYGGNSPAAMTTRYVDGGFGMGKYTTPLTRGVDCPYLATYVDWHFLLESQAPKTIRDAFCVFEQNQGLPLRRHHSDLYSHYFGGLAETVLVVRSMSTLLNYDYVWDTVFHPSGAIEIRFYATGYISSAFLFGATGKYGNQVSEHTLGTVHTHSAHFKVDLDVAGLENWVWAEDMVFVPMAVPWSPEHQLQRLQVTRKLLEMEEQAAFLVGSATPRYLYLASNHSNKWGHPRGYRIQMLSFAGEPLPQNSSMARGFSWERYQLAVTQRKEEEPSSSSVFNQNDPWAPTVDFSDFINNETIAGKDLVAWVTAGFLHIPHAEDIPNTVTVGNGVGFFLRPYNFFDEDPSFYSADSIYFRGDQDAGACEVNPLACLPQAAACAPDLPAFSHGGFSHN
Method: Safety was assessed for 7 (±3) days after dosing.
Plasma PK parameters were determined by non-compartmental analysis.
SSAO-specific amine oxidase levels in plasma were determined using a kinetic-based assay essentially as described previously (Schilter et al). Endogenous monoamine oxidases A and B were inhibited by adding pargyline to plasma samples prior to measuring H2O2 generation levels in placebo and active recipients. Maximum inhibition was defined by pre-dose (baseline) samples additionally treated with a high dose of Compound 2 and percent changes in SSAO-specific activity were calculated relative to baseline samples.

IC50 (MAO-B) [µM] | inhibition of plasma SSAO activity (plasma SSAO; 4 hours post-dose, all dose cohorts (1, 3, 6, 10 mg single dose)) | duration of continued suppression of plasma SSAO activity (plasma SSAO; after a single dose) | plasma methylamine (plasma SSAO; single dose 1, 3, 6, 10 mg) | Structure (SMILES) | metabolism and major elimination pathway [1] | Hepatic Extraction (monkey hepatocytes) [%] | In vitro Metabolic CLpred (monkey hepatocytes; well-stirred liver model) [mL/min/kg] | induction of FXR-specific genes, liver versus ileum (RT-qPCR) [2] | Hepatic Extraction (human hepatocytes) [%] | In vitro Metabolic CLpred (human hepatocytes; well-stirred liver model) [mL/min/kg] | Ppargc1a differential gene expression relative to vehicle control [3]
– | – | – | – | Cn1cc(C(=O)O)c2ccc(N3CCC(OCc4c(-c5c(Cl)cccc5Cl)noc4C4CC4)CC3)cc21 [Compound 1] | metabolized into an acyl glucuronide metabolite prior to biliary excretion | 64.4 ± 0.28 | 28 ± 0.17 | preferentially induces FXR-specific genes in the liver | 67.0 ± 1.73 | 13.8 ± 3.67 | 0.25 log2-fold change
> 50 | near complete inhibition | up to 1 week | Dose-dependent increases | COC1CCN(c2ncc(OC/C(=C/F)CN)cn2)CC1 [Compound 2] | – | – | – | – | – | – | 0.51* log2-fold change
